Here are results for nine compounds from patent publication US8569270B2, “Diphenyl sulfide derivatives and medicines containing same as active ingredient” (Kyorin Pharmaceutical Co., Ltd., priority 2009, dated 2013).

One experiment deals with T1, Human S1P3 receptor (Homo sapiens, UniProt Q99500).
T1 construct: expressed in transfected cells; host or cells: CHO cells (Geneticin-selected)
Nature of the experiment: Suppression of S1P-induced cellular calcium mobilization in human S1P3 receptor-expression CHO cells (Schild plot). As to conditions: Schild plot of S1P EC50 shift; test compound 125 nM, 1.25 μM, 12.5 μM; hS1P3 CHO cells; read-out: S1P3 dissociation constant Kd value. Format: cell-based. As to the method: Suppression Effect of Test Compound Against Cellular Calcium Mobilization of Human S1P3 Receptor-Expression Cell by S1P (Sphingosine 1-Phosphoric Acid)
Human S1P3 receptor-expression CHO cells were subcultured in a Ham's F-12 culture medium containing 10% fetal bovine serum, and 300 μg/mL of Geneticin. The human S1P3 receptor-expression CHO cells were subjected to 0.25% trypsinization, then recovered from the dish, and floated in a Ham's F-12 culture medium containing 10% fetal bovine serum, and 300 μg/mL of Geneticin. After that, the human S1P3 receptor-expression CHO cells were disseminated into a 96-well black clear bottom plate (BD Falcon Biocoat) so that 7×10^4/100 μL/well of the human S1P3 receptor-expression CHO cells were disseminated. And then, the human S1P3 receptor-expression CHO cells were cultivated for one night at 37° C. under 5% CO2. The next day, the wells were washed 3 times with 100 μL of PBS containing 0.1% fatty acid-free bovine serum albumin (BSA). The culture medium was exchanged with a Ham's F-12 culture medium containing 0.1% BSA, and then starved of serum for 6 hours in an CO2 incubator at 37° C.
The culture medium was thrown away after the 6 hours. Then, 50 μL/well of a Fluo3 loading buffer was added, and the cultures were cultivated for further 1 hour. The Fluo3 loading buffer was prepared as follows. First, equal amounts of Fluo3-AM (Dojindo) and pluronic F-127 (20% DMSO solution, invitrogen) were mixed. Next, the mixture of Fluo3-AM and pluronic F-127 was added to a Hanks-HEPES buffer (balanced salt solution containing 20 mM HEPES (pH, 7.4), 0.1% BSA (fatty acid-free), and 2.5 mM probenecid) to form a Fluo3 loading buffer having a final Fluo3-AM concentration of 4
After incubating for 1 hour, the cultures were washed 3 times with 100 μL of the Hanks-HEPES buffer. Then, 100 μL of the same buffer in which a test compound (125 nM, 1.25 μM, 12.5 μM) or DMSO had been dissolved was added to the cultures, and then incubated for 30 minutes at 37° C. in a microplate spectrophotofluorometer (FLEX Station) (Molecular Device Co., Ltd.). Then, 25 μL of S1P prepared at 5 times the concentration of the final concentration by serial dilution (final concentration of 0.1 nM, 1 nM, 10 nM, 100 nM, and 1 μM) was added, and the fluorescence based on the Fluo3 due to calcium mobilization was detected and measured at an excitation wavelength of 485 nm and a detection wavelength of 525 nm using the same apparatus. Based on the measurement data, the increase in fluorescence was calculated by subtracting the minimum fluorescence intensity from the maximum fluorescence intensity. The measured increase in fluorescence was used to perform a curve approximation of the relationship between the S1P concentration and the increase in fluorescence using PRISM 4 software (GraphPad). Based on the results, the EC50 value of the compound-untreated and the EC50 value of the compound-treated at each concentration were calculated. Schild Plot analysis was performed based on these values to determine dissociation constant Kd value. In Table 1, 1,000 nmol/L>Kd value≧100 nmol/L is indicated as “+,” 100 nmol/L>Kd value≧10 nmol/L is indicated as “++,” 10 nmol/L>Kd value≧1 nmol/L is indicated as “+++,” and 1 nmol/L>Kd value is indicated as “++++.”

A further experiment relates to IL-1β production. Nature of the experiment: LPS induced sepsis model, IL-1β in tissue by ELISA. It counts as in vivo, C57BL/6J mouse. The settings on record: 10 mg/kg i.v. twice (15 min before and 2 h after LPS), 18 h after LPS; for Suppression Rate for Lung: mouse lung; for Suppression Rate for Mesenteric Lymph Nodes: mouse mesenteric lymph nodes. As to the method: The experiment was carried out with reference to the method described in Non-Patent Literature 5 (F. Nissen et al., Nature, 452, 654 (2008)). A solution of 1 mg/ml LPS (lipopolysaccharide) in physiological saline was intraperitoneally administered (10 ml/kg) to a C57BL/6J mouse (Charles River, male, 7 to 8 weeks). The test compound in an amount of 10 mg/kg was intravenously administered twice, 15 minutes before LPS administration and 2 hours after LPS administration. The mouse was dissected 18 hours after LPS administration, and the mesenteric lymph nodes and lungs were excised. The mesenteric lymph nodes were dissolved in 200 μl and the lungs in 1 ml of a dissolving buffer (30 mM Tris (pH7.4), 150 mM NaCl, 0.1% TritonX-100, 2 mM CaCl2, and 2 mM MgCl2). Non-dissolved matter was removed by centrifugal separation. The IL-1β in the tissue solutions was measured using an IL-1β ELISA Kit (Thermo Co., Ltd.). In Table 2, compounds having a suppression rate of 50% or more are indicated as “+++,” compounds having a suppression rate of 50%>suppression rate≧30% are indicated as “++,” and compounds having a suppression rate of 30%>suppression rate 20% are indicated as “+.”
The suppression rate was calculated using the following calculation equation. a=(1−X/Y)×100 [Equation 1] X: IL-1β PRODUCTION AMOUNT WHEN, 10 mg/kg OF TEST COMPOUND WAS ADMINISTERED TO RESPECTIVE TISSUE Y: IL-1β PRODUCTION AMOUNT WHEN TEST COMPOUND WAS NOT ADMINISTERED TO RESPECTIVE TISSUE a: SUPPRESSION RATE (%)
(In an ELISA, binding on a coated surface is turned into a signal by an enzyme label.)

Experiment [1] addresses T2, S1P1 receptor (Homo sapiens, UniProt P21453). As to the kind of experiment: Intracellular calcium mobilization derivative (agonist) test in human S1P1 receptor-expression CHO cells. It counts as cell-based. More on the design: expressed in transfected cells; host or cells: CHO cells (Geneticin-selected). As to conditions: agonist mode, read-out: EC50 value, intracellular calcium mobilization derivative action. The procedure: Intracellular Calcium Mobilization Derivative Test of Test Compound Against Human S1P1 Receptor-Expression Cell
Human S1P receptor-expression CHO cells (hS1P1 receptor-expression CHO cells, hS1P3 receptor-expression CHO cells, and hS1P4 receptor-expression CHO cells) subcultured in a Ham's F-12 culture medium containing 10% fetal bovine serum, and 200 μg/mL of Geneticin were disseminated into a 96-well black clear bottom plate (coaster) so that 4×10^4 cells/well of the human S1P receptor-expression CHO cells were disseminated. The human S1P3 receptor-expression CHO cells were then cultivated for one night at 37° C. under 5% CO2. A Calcium Screening Kit reagent (Dojindo) was added as a Ca^2+ binding fluorescence indicator, and then the cultures were cultivated for 60 minutes at 37° C. under 5% CO2. After cultivation, the fluoroesence intensity was measured at an excitation wavelength of 485 nm and a detection wavelength of 525 nm using a microplate spectrophotofluorometer (FLEX Station) (Molecular Device Co., Ltd.). S1P prepared in a culture medium so that the concentration would be 10 times that of the final concentration, or a test compound (final DMSO concentration 0.1%) was added 18 seconds after the start of the fluorescence measurement, and the fluorescence intensity was continuously measured every 1.5 seconds until 100 seconds after the addition. […]

Experiment [2] addresses T2, S1P1 receptor. Nature of the experiment: Antagonistic action on the S1P1 receptor using the method of Experiment Example 1. Format: cell-based. Also noted: expressed in transfected cells.
Experiment [3] deals with Cecal ligation and puncture sepsis model. Nature of the experiment: Cecal ligation and puncture sepsis model, survival. It counts as in vivo, Long-Evans rats. The settings on record: 0.1 mg/kg/hr continuous i.v. from 2 hours after CLP, rat. As to the method: This model is widely used as a model for polymicrobial abdominal sepsis caused by leakage of intestinal bacteria. The experiment was carried out with reference to the method described in Non-Patent Literature 9 (D. Rittirsch et al., Nature Protocols, 4, 31 (2009)). Long-Evans rats were used (Nihon SLC, male 9 weeks). The abdominal portion of the rats was cut open under isoflurane anesthesia, and the cecum was removed. The cecum was ligated with silk thread, and 3 holes were opened in the tip portion of the cecum using an 18 G syringe needle. After the treatment, the cecum was returned to the body, and the wound was sutured. The rats were then returned to their cages, and observed for 4 days to determine the survival rate. The test compound (0.1 mg/kg/hr) was continuously administered from a cannula stuck in the femoral vein from 2 hours after the CLP treatment.

T2 sequence (P21453 whole entry): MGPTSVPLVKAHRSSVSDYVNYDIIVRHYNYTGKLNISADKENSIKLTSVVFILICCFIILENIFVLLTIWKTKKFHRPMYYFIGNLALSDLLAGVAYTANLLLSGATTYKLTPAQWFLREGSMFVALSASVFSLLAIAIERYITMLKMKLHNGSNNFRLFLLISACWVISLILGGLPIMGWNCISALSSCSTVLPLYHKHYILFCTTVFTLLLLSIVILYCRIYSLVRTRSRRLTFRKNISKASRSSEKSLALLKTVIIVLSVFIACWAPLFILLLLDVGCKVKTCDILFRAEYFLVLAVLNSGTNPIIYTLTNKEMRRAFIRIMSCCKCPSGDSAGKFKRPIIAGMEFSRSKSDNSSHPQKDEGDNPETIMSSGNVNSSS
T1 sequence (Q99500 whole entry): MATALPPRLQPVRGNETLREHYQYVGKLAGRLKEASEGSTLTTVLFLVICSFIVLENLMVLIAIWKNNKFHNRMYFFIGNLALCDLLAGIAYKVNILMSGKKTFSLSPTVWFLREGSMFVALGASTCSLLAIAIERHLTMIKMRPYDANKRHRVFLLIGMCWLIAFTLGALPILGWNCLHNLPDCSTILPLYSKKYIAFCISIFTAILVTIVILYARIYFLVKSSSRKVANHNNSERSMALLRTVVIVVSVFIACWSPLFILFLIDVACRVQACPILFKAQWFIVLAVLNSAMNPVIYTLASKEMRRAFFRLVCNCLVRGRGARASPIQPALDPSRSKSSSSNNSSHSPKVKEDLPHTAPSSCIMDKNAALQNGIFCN

For `C[C@](N)(CCc1ccc(Sc2cc(C(F)(F)F)ccc2O)cc1Cl)COP(=O)(O)O` [Example 11, (S)-2-amino-4-[2-chloro-4-(2-hydroxy-5-trifluoromethylphenylthio)phenyl]-2-methylbutylphosphoric acid monoester], the dissociation constant (Kd) on Human S1P3 receptor lay within 1 to 10 nM. In addition, in the experiment with IL-1β production, the “Suppression Rate for Lung” value was “++ (50%>suppression rate≧30%)” and the “Suppression Rate for Mesenteric Lymph Nodes” value is recorded as “++ (50%>suppression rate≧30%)”.

On to `C=CC[C@](N)(CCc1ccc(Sc2cc(C(F)(F)F)ccc2O)cc1Cl)COP(=O)(O)O` [Example 12, (R)-2-allyl-2-amino-4-[2-chloro-4-(2-hydroxy-5-trifluoromethylphenylthio)phenyl]-butylphosphoric acid monoester], for which the Kd at Human S1P3 receptor was less than 1 nM. In the experiment with IL-1β production, the “Suppression Rate for Lung” value was “++ (50%>suppression rate≧30%)” and the “Suppression Rate for Mesenteric Lymph Nodes” value is given as “+ (30%>suppression rate 20%)”.

As to `CCC[C@](N)(CCc1ccc(Sc2cc(C(F)(F)F)ccc2O)cc1Cl)COP(=O)(O)O` [Example 13], the dissociation constant (Kd) on Human S1P3 receptor is less than 1 nM. Besides, the concentration giving a half-maximal response (EC50) on S1P1 receptor [1] was more than 10 µM. The dissociation constant Kd on S1P1 receptor [2] was more than 100 µM. Moreover, in the experiment on IL-1β production, the “Suppression Rate for Lung” value was “+++ (suppression rate of 50% or more)” and the “Suppression Rate for Mesenteric Lymph Nodes” value is on record as “+++ (suppression rate of 50% or more)”.

As to `C[C@](N)(CCc1ccc(Sc2cc(C#N)ccc2O)cc1Cl)COP(=O)(O)O` [Example 15, (S)-2-amino-4-[2-chloro-4-(5-cyano-2-hydroxyphenylthio)phenyl]-2-methylbutylphosphoric acid monoester], the Kd is 100 to 1000 nM on Human S1P3 receptor and more than 100 µM at S1P1 receptor [2]. For the same compound, the EC50 on S1P1 receptor [1] is more than 10 µM.

As to `CCC[C@](N)(CCc1ccc(Sc2cc(C(C)C)ccc2O)cc1Cl)COP(=O)(O)O` [Example 19, (S)-2-amino-4-[2-chloro-4-(2-hydroxy-5-isopropylphenylthio)phenyl]-2-propylbutylphosphoric acid monoester], on Human S1P3 receptor, the Kd fell in the range of 1 to 10 nM.

Regarding `CCC[C@](N)(CCc1ccc(Sc2cc(C3CC3)ccc2O)cc1Cl)COP(=O)(O)O` [Example 20, (S)-2-amino-4-[2-chloro-4-(5-cyclopropyl-2-hydroxyphenylthio)phenyl]-2-propylbutylphosphoric acid monoester], the Kd on Human S1P3 receptor is 1 to 10 nM.

Consider `CCC[C@](N)(CCc1ccc(Sc2cc(C(C)(C)C)ccc2O)cc1Cl)COP(=O)(O)O` [Example 21, (S)-2-amino-4-[4-(5-t-butyl-2-hydroxyphenylthio)-2-chlorophenyl]-2-propylbutylphosphoric acid monoester], for which the Kd at Human S1P3 receptor is less than 1 nM.

Take `CCC[C@](N)(CCc1ccc(Sc2cc(-c3ccccc3)ccc2O)cc1Cl)COP(=O)(O)O` [Example 22]: the Kd at Human S1P3 receptor is less than 1 nM. In experiment [3] (medium group 40%), the “survival rate after 4 days” value was determined as 70%. The “survival curve compared with the medium administration group” value in experiment [3] (observed 4 days) is “survival curve that had shifted to the right”.

As to `CCC[C@](N)(CCc1ccc(Sc2cc(OCc3ccccc3)ccc2O)cc1Cl)COP(=O)(O)O` [Example 23, (S)-2-amino-4-[4-(5-benzyloxy-2-hydroxyphenylthio)-2-chlorophenyl]-2-propylbutylphosphoric acid monoester], the Kd at Human S1P3 receptor is 1 to 10 nM.

The Kd is the equilibrium constant for the complex coming apart. The term EC50 denotes the concentration needed to bring the measured effect to its halfway point.
